This series relates to Yap1 mRNA. In words: Antisense inhibition of human Yap1 in A-431 cells by cEt gapmers, single dose (Example 3, RTS36584). Format: cell-based. Here is the method: Modified oligonucleotides were designed to target a Yap1 nucleic acid and were tested for their effect on Yap1 mRNA level in vitro. The modified oligonucleotides were tested in a series of experiments that had similar culture conditions. Cultured A-431 cells at a density of 5,000 cells per well were treated using free uptake with 2,000 nM of modified oligonucleotide. After a treatment period of approximately 48 hours, RNA was isolated from the cells and Yap1 mRNA levels were measured by quantitative real-time RTPCR. Human primer probe set RTS36584 (forward sequence […], designated herein as SEQ ID NO.: 14; reverse sequence […], designated herein as SEQ ID NO.: 15; probe sequence […], designated herein as SEQ ID NO.: 16) was used to measure mRNA levels. Yap1 mRNA levels were normalized to total RNA content, as measured by RIBOGREEN®. Results are presented in the tables below as percent control of the amount of Yap1 mRNA relative to untreated control cells (% UTC). The modified oligonucleotides with percent control values marked with an asterisk (*) target the amplicon region of the primer probe set. Additional assays may be used to measure the potency and efficacy of the modified oligonucleotides targeting the amplicon region.
The newly designed modified oligonucleotides in the Tables below were designed as 3-10-3 cEt gapmers. The gapmers are 16 nucleosides in length, wherein the central gap segment comprises of ten 2′-deoxynucleosides and is flanked by wing segments on the 5′ direction and the 3′ direction comprising three nucleosides each. Each nucleoside in the 5′ wing segment and each nucleoside in the 3′ wing segment has a cEt sugar modification. The internucleoside linkages throughout each gapmer are phosphorothioate (P═S) linkages. All cytosine residues throughout each gapmer are 5-methylcytosines.
“Start site” indicates the 5′-most nucleoside to which the gapmer is targeted in the human gene sequence. “Stop site” indicates the 3′-most nucleoside to which the gapmer is targeted human gene sequence. […] Activity of the modified oligonucleotide may be defined in a different experiment.

Setting [1] is: Table 13, A-431 cells, 5,000 cells per well, free uptake, 2,000 nM modified oligonucleotide, approx. 48 hours, RTS36584, normalized to RIBOGREEN, Yap1 mRNA relative to untreated control cells.
[2] abbreviates: Table 28, Yap1 mRNA as percent of untreated control, 3-10-3 cEt gapmers targeting SEQ ID NO.: 1, and 2.
Setting [3] is: Table 29, Yap1 mRNA as percent of untreated control, 3-10-3 cEt gapmers targeting SEQ ID NO.: 1, and 2.
Setting [4] is: Table 8, A-431 cells, 5,000 cells per well, free uptake, 2,000 nM, approximately 48 hours, RTS36584, normalized to RIBOGREEN, Yap1 mRNA relative to untreated control cells.
[5] abbreviates: Table 11, A-431 cells, 5,000 cells per well, free uptake, 2,000 nM oligonucleotide, approx. 48 hours, primer probe set RTS36584, Yap1 mRNA normalized to RIBOGREEN, percent of untreated control.
The mark [6] stands for this setting: Table 9, A-431 cells, 5,000 cells per well, free uptake, 2,000 nM, approximately 48 hours, RTS36584, normalized to RIBOGREEN, Yap1 mRNA relative to untreated control cells.
Setting [7] is: Table 34, Yap1 mRNA as percent of untreated control, 3-10-3 cEt gapmers targeting SEQ ID NO: 1 and 2, single dose.
Setting [8] is: Table 12, A-431 cells, 5,000 cells per well, free uptake, 2,000 nM modified oligonucleotide, approx. 48 hours, RTS36584, normalized to RIBOGREEN, Yap1 mRNA relative to untreated control cells.
The mark [9] stands for this setting: Table 27, Yap1 mRNA by 3-10-3 cEt gapmers targeting SEQ ID NO.: 1, and 2, percent of untreated control.
Where [10] appears, read: Table 35, Yap1 mRNA as percent of untreated control, 3-10-3 cEt gapmers targeting SEQ ID NO: 1 and 2, single dose.
Setting [11] is: Table 10, A-431 cells, 5,000 cells per well, free uptake, 2,000 nM oligonucleotide, approx. 48 hours, primer probe set RTS36584, Yap1 mRNA normalized to RIBOGREEN, percent of untreated control.

Strand notation (5' to 3'): a small letter for the sugar, then the base; units joined by * are phosphorothioate-linked, units joined directly phosphodiester-linked; [ ] holds rarer units or linkages, { } end groups; capitals alone tell only the bases. k = constrained ethyl (cEt); [5mC] = 5-methylcytosine; d = 2'-deoxy (DNA)

With “958515 (k[5mC]*k[5mC]*k[5mC]*d[5mC]*dA*dA*d[5mC]*d[5mC]*dA*dG*dA*dT*dT*kT*kA*kA; antisense) [Compound 958515]”, under setting [1], the “YAP1 (% UTC)” value is 28 % UTC.

For “1075406 (antisense kA*k[5mC]*kT*dA*dT*dA*dT*dA*dA*d[5mC]*d[5mC]*dT*dG*kA*kA*k[5mC]) [compound 1075406]”, under setting [2], the “YAP1 (% UTC)” value came out at 99 % UTC.

For the substance “1075182 (kG*kA*kT*dA*dT*dT*dA*dT*dA*dT*dT*dA*d[5mC]*kT*kA*k[5mC]; antisense) [compound 1075182]”, the “YAP1 (% UTC)” value under setting [2] is reported as 61 % UTC.

For the substance “958555 (kG*k[5mC]*kT*dT*dA*dT*dA*dT*dT*dG*dA*dA*dG*kA*kG*kT; antisense) [Compound 958555]”, under setting [1], the “YAP1 (% UTC)” value worked out at 4 % UTC.

Take “1074287 (antisense kA*k[5mC]*kT*dG*dA*dT*dT*d[5mC]*dT*d[5mC]*dT*dG*dG*kT*kT*k[5mC]) [compound 1074287]”: the “YAP1 (% UTC)” value under setting [3] came to 11 % UTC.

Take “958390 (antisense kG*k[5mC]*kG*dA*dA*dG*dG*dT*dG*d[5mC]*dG*dG*dA*kG*k[5mC]*kG) [Compound 958390]”: the “YAP1 (% UTC)” value under setting [4] stood at 145 % UTC.

For “958578 (k[5mC]*kT*kT*dA*dA*dT*d[5mC]*dT*dG*dT*dG*dG*d[5mC]*kT*kA*k[5mC]; antisense) [Compound 958578]”, the “YAP1 (% UTC)” value under setting [5] turned out to be 4 % UTC.

Regarding “958606 (antisense kT*k[5mC]*k[5mC]*dA*d[5mC]*d[5mC]*dT*dG*dA*dG*d[5mC]*dA*d[5mC]*kT*k[5mC]*kA) [Compound 958606]”, the “YAP1 (% UTC)” value under setting [6] was 31 % UTC.

“1074900 (antisense kA*kT*kT*dA*dA*d[5mC]*dT*dT*dT*dT*dG*dG*dG*k[5mC]*kA*kA) [compound 1074900]”: under setting [7], the “YAP1 (% UTC)” value is 40 % UTC.

As to “1075380 (antisense kA*k[5mC]*kT*dA*dA*dA*dA*d[5mC]*dT*dG*dA*d[5mC]*dT*kG*kT*k[5mC]) [compound 1075380]”, the “YAP1 (% UTC)” value under setting [7] is 94 % UTC.

As for “958554 (kA*kA*k[5mC]*d[5mC]*dA*dT*dT*dA*dT*dT*dA*d[5mC]*dT*k[5mC]*k[5mC]*kT; antisense) [Compound 958554]”, the “YAP1 (% UTC)” value under setting [8] is reported as 1 % UTC.

For “1075149 (kG*k[5mC]*kG*dG*dA*dA*dA*dA*dA*dA*d[5mC]*dA*d[5mC]*k[5mC]*kT*kA; antisense) [compound 1075149]”, the “YAP1 (% UTC)” value under setting [9] stood at 50 % UTC.

Consider “958525 (kA*kT*kG*dA*dA*dG*dG*dT*dA*dA*dA*d[5mC]*d[5mC]*kA*k[5mC]*kT; antisense) [Compound 958525]”, for which the “YAP1 (% UTC)” value under setting [1] stood at 3 % UTC.

Take “958766 (antisense kT*kA*kA*d[5mC]*dA*dT*dA*dT*dG*dT*d[5mC]*dT*dA*k[5mC]*kT*k[5mC]) [Compound 958766]”: the “YAP1 (% UTC)” value under setting [6] is 23 % UTC.

Turning to “958558 (kT*kT*k[5mC]*dA*d[5mC]*dA*dA*d[5mC]*d[5mC]*dA*dA*d[5mC]*dT*kA*kT*kT; antisense) [Compound 958558]”, the “YAP1 (% UTC)” value under setting [5] is recorded as 9 % UTC.

With “1075765 (k[5mC]*kT*kT*dA*dA*dG*dG*d[5mC]*dA*dG*d[5mC]*dT*d[5mC]*kT*kA*kT; antisense) [compound 1075765]”, the “YAP1 (% UTC)” value under setting [10] is on record as 58 % UTC.

For “958449 (antisense k[5mC]*k[5mC]*kG*dG*dA*d[5mC]*dG*dG*d[5mC]*dG*dG*dG*d[5mC]*k[5mC]*k[5mC]*kT) [Compound 958449]”, the “YAP1 (% UTC)” value under setting [8] amounted to 84 % UTC.

With “1075471 (antisense kA*kG*k[5mC]*d[5mC]*dA*dA*dT*dA*dA*dG*dT*dT*dA*kT*k[5mC]*kA) [compound 1075471]”, under setting [3], the “YAP1 (% UTC)” value is 55 % UTC.

Take “958582 (kA*kA*kT*d[5mC]*dT*dG*d[5mC]*dT*dG*dA*dT*dA*dT*kA*kT*kA; antisense) [Compound 958582]”: under setting [11], the “YAP1 (% UTC)” value amounted to 21 % UTC.

On to “958726 (antisense k[5mC]*kT*kG*dT*d[5mC]*dA*dG*dT*dT*dA*dT*d[5mC]*d[5mC]*kT*kA*kT) [Compound 958726]”, for which the “YAP1 (% UTC)” value under setting [6] stood at 3 % UTC.

Turning to “958619 (antisense kT*kG*kG*dG*dT*d[5mC]*dT*dA*dG*d[5mC]*d[5mC]*dA*dA*kG*kA*kG) [Compound 958619]”, the “YAP1 (% UTC)” value under setting [8] is 71 % UTC.

For “1075124 (kG*kT*kA*dA*dA*dA*dA*d[5mC]*d[5mC]*dT*dG*dG*dG*kT*kT*kT; antisense) [compound 1075124]”, the “YAP1 (% UTC)” value under setting [7] was found to be 58 % UTC.

In the case of “958441 (antisense kG*k[5mC]*kG*dA*d[5mC]*dG*dG*d[5mC]*dT*dG*d[5mC]*dG*dG*kG*k[5mC]*k[5mC]) [Compound 958441]”, under setting [6], the “YAP1 (% UTC)” value came out at 72 % UTC.

Regarding “1076045 (kG*kT*kG*d[5mC]*dA*dA*dT*dA*dA*dA*dT*dA*dG*kT*kT*k[5mC]; antisense) [compound 1076045]”, under setting [9], the “YAP1 (% UTC)” value is on record as 11 % UTC.

For “958620 (antisense kA*kA*kG*d[5mC]*d[5mC]*dT*dT*dG*dG*dG*dT*d[5mC]*dT*kA*kG*k[5mC]) [Compound 958620]”, the “YAP1 (% UTC)” value under setting [1] was determined as 57 % UTC.

For the substance “958651 (kA*kA*k[5mC]*dT*dA*dA*dA*dG*dA*dG*dG*dA*d[5mC]*kT*kT*kA; antisense) [Compound 958651]”, the “YAP1 (% UTC)” value under setting [6] is given as 62 % UTC.

As for “958386 (antisense kG*kG*k[5mC]*dG*d[5mC]*dG*d[5mC]*dG*d[5mC]*dA*dT*dT*dG*kT*kG*k[5mC]) [Compound 958386]”, the “YAP1 (% UTC)” value under setting [4] is listed as 111 % UTC.

Regarding “958572 (kA*kT*kT*dA*dT*dA*dG*dG*d[5mC]*dA*d[5mC]*dT*d[5mC]*k[5mC]*kT*kT; antisense) [Compound 958572]”, under setting [11], the “YAP1 (% UTC)” value amounted to 5 % UTC.

Take “1075348 (antisense kT*k[5mC]*kA*d[5mC]*dA*dA*dA*dA*d[5mC]*d[5mC]*d[5mC]*dT*dA*k[5mC]*kA*k[5mC]) [compound 1075348]”: the “YAP1 (% UTC)” value under setting [7] came out at 96 % UTC.

For the substance “958411 (antisense k[5mC]*kT*kT*dT*dA*d[5mC]*d[5mC]*dA*dA*dA*dA*d[5mC]*dG*kA*kG*kG) [Compound 958411]”, the “YAP1 (% UTC)” value under setting [4] is given as 90 % UTC.

In the case of “958465 (antisense kG*kG*k[5mC]*dT*dT*d[5mC]*dA*dA*dG*dG*dT*dA*dG*kT*k[5mC]*kT) [Compound 958465]”, the “YAP1 (% UTC)” value under setting [1] was 84 % UTC.

For “958624 (antisense kG*kG*kG*dA*dT*dT*dG*dA*dT*dA*dT*dT*d[5mC]*k[5mC]*kG*k[5mC]) [Compound 958624]”, under setting [8], the “YAP1 (% UTC)” value stood at 74 % UTC.

For the substance “1075247 (k[5mC]*kT*kA*dA*dG*dA*dT*dA*dA*d[5mC]*dT*dA*dG*kT*kA*kA; antisense) [compound 1075247]”, the “YAP1 (% UTC)” value under setting [3] was 101 % UTC.

Take “958356 (antisense kT*kT*kG*dA*dA*dG*dA*dA*dG*dG*dA*dG*dT*k[5mC]*kG*kG) [Compound 958356]”: the “YAP1 (% UTC)” value under setting [4] was 9 % UTC.

Take “1075605 (antisense k[5mC]*kG*kT*dA*dA*dA*d[5mC]*dA*dT*dT*dT*dT*dG*k[5mC]*k[5mC]*kT) [compound 1075605]”: the “YAP1 (% UTC)” value under setting [10] was 38 % UTC.

As to “958397 (antisense k[5mC]*kA*kG*dG*d[5mC]*dT*dA*dT*dT*dA*dA*dG*d[5mC]*kT*kG*kT) [Compound 958397]”, the “YAP1 (% UTC)” value under setting [4] is 127 % UTC.

With “958368 (antisense kA*kT*k[5mC]*dT*dA*dG*d[5mC]*dT*dT*dG*dG*dT*dG*kG*k[5mC]*kA) [Compound 958368]”, the “YAP1 (% UTC)” value under setting [4] is on record as 11 % UTC.

Turning to “1075413 (antisense k[5mC]*kA*kT*dA*dA*d[5mC]*dT*dA*d[5mC]*dA*dT*d[5mC]*dG*kA*k[5mC]*kA) [compound 1075413]”, under setting [10], the “YAP1 (% UTC)” value is 34 % UTC.

The values are drawn from patent US11214803B2, “Modulators of YAP1 expression” (Ionis Pharmaceuticals, Inc., priority 2019, dated 2022).
